Experimental data as given in US12502434B2, “Compound comprising EZH2 inhibitor and E3 ligase binder and pharmaceutical composition for preventing or treating EZH2-associated disease comprising same as active ingredient” (DAEGU-GYEONGBUK MEDICAL INNOVATION FOUNDATION, priority 2019, dated 2025).
Where two headings read alike, the source gives them in different places.

Columns and labels:
[1] = target: T1, HiBiT-EZH2 in EZH2-HiBiT HEK293T cells (Homo sapiens, UniProt Q15910); test: EZH2 proteolytic activity using Nano-BiT assay system; assay type: cell-based; conditions: for EZH2 proteolytic ability compared to comparative compounds 1, 2 and 3 (in words): 1 μM; for Relative EZH2 degradation rate, 1 μM(%) Average: 72 hours, n = 3
T1 construct: endogenous in cells; host or cells: HEK293T (CRISPR/Cas9 HiBiT knock-in at the EZH2 locus)
T1 sequence (Q15910 whole entry): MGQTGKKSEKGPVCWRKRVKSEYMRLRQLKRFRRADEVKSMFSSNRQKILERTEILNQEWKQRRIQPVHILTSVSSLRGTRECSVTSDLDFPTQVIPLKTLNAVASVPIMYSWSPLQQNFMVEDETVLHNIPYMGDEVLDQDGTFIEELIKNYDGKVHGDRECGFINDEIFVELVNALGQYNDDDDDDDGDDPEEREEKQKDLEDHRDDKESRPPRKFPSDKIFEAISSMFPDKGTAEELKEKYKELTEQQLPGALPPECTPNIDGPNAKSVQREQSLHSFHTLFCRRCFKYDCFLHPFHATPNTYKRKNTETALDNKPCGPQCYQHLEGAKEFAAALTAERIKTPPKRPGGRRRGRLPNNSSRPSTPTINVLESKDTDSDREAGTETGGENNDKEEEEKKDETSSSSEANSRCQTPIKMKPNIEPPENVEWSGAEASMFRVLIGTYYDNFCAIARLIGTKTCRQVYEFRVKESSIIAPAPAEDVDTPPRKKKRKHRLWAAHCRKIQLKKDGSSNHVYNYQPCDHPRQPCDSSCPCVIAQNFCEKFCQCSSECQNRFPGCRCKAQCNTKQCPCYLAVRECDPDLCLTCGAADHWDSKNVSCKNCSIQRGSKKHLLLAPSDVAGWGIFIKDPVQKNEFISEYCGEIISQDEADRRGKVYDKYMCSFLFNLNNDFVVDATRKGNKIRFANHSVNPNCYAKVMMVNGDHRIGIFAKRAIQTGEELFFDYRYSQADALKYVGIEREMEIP
T1 sequence (O75530 whole entry partner): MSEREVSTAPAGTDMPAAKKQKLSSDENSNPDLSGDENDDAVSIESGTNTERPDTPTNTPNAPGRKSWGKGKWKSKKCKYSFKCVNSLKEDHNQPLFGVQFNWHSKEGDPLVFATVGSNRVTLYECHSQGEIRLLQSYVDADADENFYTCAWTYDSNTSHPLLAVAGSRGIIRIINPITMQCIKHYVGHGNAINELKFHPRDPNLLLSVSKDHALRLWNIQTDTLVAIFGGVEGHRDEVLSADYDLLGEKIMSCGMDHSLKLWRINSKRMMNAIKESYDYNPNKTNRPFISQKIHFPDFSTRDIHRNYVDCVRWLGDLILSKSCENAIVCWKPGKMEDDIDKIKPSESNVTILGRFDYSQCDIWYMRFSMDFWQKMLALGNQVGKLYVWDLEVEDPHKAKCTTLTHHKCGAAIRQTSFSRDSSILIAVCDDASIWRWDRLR
T1 sequence (Q15022 whole entry partner): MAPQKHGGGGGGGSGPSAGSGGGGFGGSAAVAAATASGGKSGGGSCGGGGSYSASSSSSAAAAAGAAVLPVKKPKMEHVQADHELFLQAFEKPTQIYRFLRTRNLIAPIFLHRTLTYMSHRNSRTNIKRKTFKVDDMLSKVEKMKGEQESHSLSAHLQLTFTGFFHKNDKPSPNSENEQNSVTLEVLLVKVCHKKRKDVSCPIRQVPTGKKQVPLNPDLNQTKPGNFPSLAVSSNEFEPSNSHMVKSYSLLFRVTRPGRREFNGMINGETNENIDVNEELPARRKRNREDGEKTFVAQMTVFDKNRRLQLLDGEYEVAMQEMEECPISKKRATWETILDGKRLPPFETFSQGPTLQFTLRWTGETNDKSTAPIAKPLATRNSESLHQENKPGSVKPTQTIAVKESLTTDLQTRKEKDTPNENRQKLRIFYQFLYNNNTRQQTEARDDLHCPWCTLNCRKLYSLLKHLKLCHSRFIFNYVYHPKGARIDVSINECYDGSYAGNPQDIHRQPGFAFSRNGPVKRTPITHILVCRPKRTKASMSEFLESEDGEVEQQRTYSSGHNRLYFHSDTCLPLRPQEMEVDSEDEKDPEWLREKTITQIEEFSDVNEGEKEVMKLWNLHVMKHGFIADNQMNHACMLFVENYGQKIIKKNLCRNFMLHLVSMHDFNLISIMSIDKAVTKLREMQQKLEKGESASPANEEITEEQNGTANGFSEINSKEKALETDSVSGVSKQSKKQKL
Protocol: In order to evaluate the EZH2 proteolytic activity of the compound according to the present invention, the following experiment was performed. Specifically, the CRISPR/Cas9 technique was used to construct a stable cell line of HiBiT-EZH2. […] After harvesting the cells, the cell solution was prepared at a concentration of 1 cell/100 ul, and 100 ul of the cell solution was dispensed into each well of a 96-well plate and seeded so that a single cell could proliferate in each well. After proliferating the cells for 2-3 weeks, some of the proliferated cells from one cell were recovered and gDNA was extracted. To confirm that the HiBiT sequence was correctly inserted into the EZH2 target, deep sequencing was performed to select the cells containing the HiBiT sequence, and after further verification through Sanger sequencing, the final EZH2-HiBiT HEK293T cells were obtained. 1×10^3 of the obtained cells were placed in a 96-well white plate, and after 18 hours of stabilization, each well was treated with the example compound at a final concentration of 1 μM. The control group was treated with the same concentration of DMSO which was used as the solvent of the example compound. After 72 hours of the treatment, an assay was performed using Nano-Glo HiBiT Lytic Detection System ([…], Promega). After removing the medium, 100 μL of lysis buffer, 1 μL of LgBiT protein and 1 μL of substrate buffer were added to each well. Then, the plate was reacted in a shaking incubator at 700 rpm for 2 minutes, and then the mixture of each well was pipetted to mix well. Thereafter, the plate was reacted at room temperature for 10 minutes while light was blocked, and luminescence was measured.

[2] = target: T2, EZH2 protein in LS174T cells (Homo sapiens, UniProt Q15910); test: Proteolytic effect in colorectal cancer cells (Western blotting); assay type: cell-based
T2 construct: endogenous in cells; host or cells: LS174T
T2 sequence (Q15910 whole entry): as the sequence (Q15910 whole entry) above
T2 sequence (O75530 whole entry partner): as the sequence (O75530 whole entry partner) above
T2 sequence (Q15022 whole entry partner): as the sequence (Q15022 whole entry partner) above
Protocol: After 72 hours of the treatment, the cells were collected and lysed using RIPA buffer (50 mM Tris, pH 7.5, 150 mM NaCl, 1% Triton X-100, 0.1% SDS, […], 0.5% deoxycholate, and protease inhibitor cocktail), followed by sonication (30 sec on/30 sec off, 5 cycles) to prepare a cell lysate.

[3] = EZH2 protein, LS174T cells, 1 μM, 72 hours
[4] = EZH2 protein, LS174T cells, 1 uM, 72 hours, Western blotting

| Grade (percent value of the protein degradation when treated with 1 μM) [2, 3] | %, degradation at 1 uM [2, 4] | effect of degrading EZH2 protein when treated to colorectal cancer cells (in words) ([2]; LS174T cells) | Compound | EZH2 proteolytic ability compared to comparative compounds 1, 2 and 3 (in words) [1] | Relative EZH2 degradation rate, 1 μM(%) Average [1] | EZH2 proteolytic effect by Western blotting (figure, in words) ([2]; FIGS. 1 to 5) | %, degradation at 1 uM [2] | EZH2 proteolytic effect by Western blotting (figure, in words) [2] | Grade (percent value of the protein degradation when treated with 1 μM) [2] |
| --- | --- | --- | --- | --- | --- | --- | --- | --- | --- |
| A (>75%) | 95.65% | excellent effects | CCN(c1cc(-c2ccc(CN3CCN(CC(=O)N4CCC5(CCN(CCNc6cccc7c6C(=O)N(C6CCC(=O)NC6=O)C7=O)CC5)CC4)CC3)cc2)cc(C(=O)NCc2c(C)cc(C)[nH]c2=O)c1C)C1CCOCC1 (stereo not shown) [Example 30, N-((4,6-dimethyl-2-oxo-1,2-dihydropyridine-3-yl)methyl)-4′-((4-(2-(9-(2-((2-(2,6-dioxopiperidine-3-yl)-1,3-dioxoisoindoline-4-yl)amino)ethyl)-3,9-diazaspiro[5.5]undecane-3-yl)-2-oxoethyl)piperazine-1-yl)methyl)-5-(ethyl(tetrahydro-2H-pyran-4-yl)amino)-4-methyl-[1,1′-biphenyl]-3-carboxamide] | significantly better EZH2 proteolytic ability | 50.7% | confirming the EZH2 proteolytic effect | – | – | – |
| A (>75%) | 92.73% | excellent effects | CCN(c1cc(-c2ccc(CN3CCN(CC(=O)NCCCCCOCCCOCC(=O)N[C@H](C(=O)N4C[C@H](O)C[C@H]4C(=O)NCc4ccc(-c5scnc5C)cc4)C(C)(C)C)CC3)cc2)cc(C(=O)NCc2c(C)cc(C)[nH]c2=O)c1C)C1CCOCC1 [Example 37, (2S,4R)-1-((S)-2-(tert-butyl)-18-(4-((3′-(((4,6-dimethyl-2-oxo-1,2-dihydropyridine-3-yl)methyl)carbamoyl)-5′-(ethyl(tetrahydro-2H-pyran-4-yl)amino)-4′-methyl-[1,1′-biphenyl]-4-yl)methyl)piperazine-1-yl)-4,17-dioxo-6,10-dioxa-3,16-diazaoctadecanoyl)-4-hydroxy-N-(4-(4-methylthiazole-5-yl)benzyl)pyrrolidine-2-carboxamide] | significantly better EZH2 proteolytic ability | 62.9% | – | – | – | – |
| – | – | – | CCN(c1cc(-c2ccc(CN3CCN(CC(=O)NCCCCCCOCC(=O)N[C@H](C(=O)N4C[C@H](O)C[C@H]4C(=O)NCc4ccc(-c5scnc5C)cc4)C(C)(C)C)CC3)cc2)cc(C(=O)NCc2c(C)cc(C)[nH]c2=O)c1C)C1CCOCC1 [Example 46, (2S,4R)-1-((S)-2-(2-((6-(2-(4-((3′-(((4,6-dimethyl-2-oxo-1,2-dihydropyridine-3-yl)methyl)carbamoyl)-5′-(ethyl(tetrahydro-2H-pyran-4-yl)amino)-4′-methyl-[1,1′-biphenyl]-4-yl)methyl)piperazine-1-yl)acetamido)hexyl)oxy)acetamido)-3,3-dimethylbutanoyl)-4-hydroxy-N-(4-(4-methylthiazole-5-yl)benzyl)pyrrolidine-2-carboxamide] | significantly better EZH2 proteolytic ability | 65.8% | – | 83.76% | confirming the EZH2 proteolytic effect | A (key: A: >75%; B: 50-75%; C: 25-50%; D: <25%) |

| Compound | Grade (percent value of the protein degradation when treated with 1 μM) [2, 3] | %, degradation at 1 uM [2, 4] | effect of degrading EZH2 protein when treated to colorectal cancer cells (in words) ([2]; LS174T cells) | EZH2 proteolytic ability compared to comparative compounds 1, 2 and 3 (in words) [1] | Relative EZH2 degradation rate, 1 μM(%) Average [1] | EZH2 proteolytic effect by Western blotting (figure, in words) ([2]; FIGS. 1 to 5) | %, degradation at 1 uM [2] | EZH2 proteolytic effect by Western blotting (figure, in words) [2] | Grade (percent value of the protein degradation when treated with 1 μM) [2] |
| --- | --- | --- | --- | --- | --- | --- | --- | --- | --- |
| CCN(c1cc(-c2ccc(CN3CCN(CC(=O)NCCCCCCCCCOCC(=O)N[C@H](C(=O)N4C[C@H](O)C[C@H]4C(=O)NCc4ccc(-c5scnc5C)cc4)C(C)(C)C)CC3)cc2)cc(C(=O)NCc2c(C)cc(C)[nH]c2=O)c1C)C1CCOCC1 [Example 49, (2S,4R)-1-((S)-2-(2-((9-(2-(4-((3′-(((4,6-dimethyl-2-oxo-1,2-dihydropyridine-3-yl)methyl)carbamoyl)-5′-(ethyl(tetrahydro-2H-pyran-4-yl)amino)-4′-methyl-[1,1′-biphenyl]-4-yl)methyl)piperazine-1-yl)acetamido)nonyl)oxy)acetamido)-3,3-dimethylbutanoyl)-4-hydroxy-N-(4-(4-methylthiazole-5-yl)benzyl)pyrrolidine-2-carboxamide] | A (>75%) | 96.49% | excellent effects | significantly better EZH2 proteolytic ability | 77.8% | confirming the EZH2 proteolytic effect | – | – | – |
